Entries after “also recorded” stand apart in the source; their conditions may differ.
What was measured:
lateral line hair cells = test: Anatomical assay: YO-PRO1 staining, aggregate neuromast damage score; details: for Anatomical Assay Damage Score (Mean ± S.D.): score 0-21 per fish
Method: Following the drug exposure (see below for detailed methods), larvae were fluorescently stained/labeled in embryo medium containing 6 μM YO-PRO1 (Invitrogen; Y3603) for 20 min. YO-PRO1 is a common vital dye used for staining viable lateral line hair cells in zebrafish (Coffin A B, et al., Zebrafish. 2010 March; 7(1):3-11; Ou H C, et al., Drug Discov Today. 2010 April; 15(7-8):265-71; Ou H C, et al., Hear Res. 2007 November; 233(1-2):46-53; Santos F, et al., Hear Res. 2006 March; 213(1-2):25-33). Concentration and duration were optimized for this purpose. After labeling, the larvae were rinsed three times in embryo media and then anesthetized using 0.5 mM of MS-222 (Tricaine Methanesulfonate, Western Chemical Inc.) (Buck L M, et al., Hear Res. 2012 February; 284(1-2):67-81). The larvae were fixed in 2% paraformaldehyde for 1 hour at room temperature and stored in PBS overnight at 4° C. Fixed larvae were then mounted in 6% methylcellulose (Sigma; M7140) in 0.2 mm silicone chambers and covered with No. 1.5 cover glass (Warner Instruments; 64-0718) for confocal microscopy. Larvae were observed under a confocal microscope (Leica SP5) using 20× dry and 40× oil immersion lenses.
Treatment groups consisted of 3-7 fish. Seven ventral neuromasts of the posterior lateral line (P3, P4, P5, P6, P7, P8, and P9) were selected for determination of the “neuromast damage score” per fish (FIG. 1). Each neuromast was scored from 0 to 3. A score of 0 represents no damage with normal staining; 1 represents mild damage with moderate staining; 2 represents severe damage with poor staining; 3 represents total hair cell/neuromast destruction with no staining (FIG. 2). Seven scores per fish were then added to generate the total “aggregate neuromast damage score.” The lowest possible score for an individual fish is 0, representing no damage, with the highest possible score for a fish being 21, representing complete damage. Separate individuals (scorer A, B and C) were trained in the counting technique and “neuromast damage scores” were generated independently with blinding of experimental conditions to insure unbiased assessment. The mean score of the three evaluators was used to determine the final “neuromast damage score.” Inter-scorer variation was validated by using the Pearson's correlation coefficient.
In order to establish the sensitivity of the newly developed behavior assay for detecting damage caused by varying doses of cisplatin, a cisplatin dose-dependent exposure experiment was prepared. Cisplatin solutions were prepared from powder (Sigma; P4394) in embryo medium. Five dpf larvae were incubated in cisplatin at concentrations of 0, 250, 500, 750, or 1000 μM (Cis 0, Cis 250, Cis 500, Cis 750, and Cis 1000, respectively) for 4 hours at room temperature or 28±0.5° C. then rinsed 3 times in embryo media.
In order to assess the effect of dexamethasone on cisplatin-induced ototoxicity using the behavior/anatomical assay technique, dexamethasone pre-exposure groups were prepared. Dexamethasone (Sigma; D4902) stock solution (25 mg/ml) was prepared with DMSO (Dimethyl Sulphoxide, Sigma; D2650) and diluted with embryo medium. Four-and-half dpf larvae were incubated in dexamethasone at a concentration of 5 μM for 12 hours at 28.5±0.5° C. and subsequently rinsed in embryo media. Four-and-half dpf fish were used to allow for a half-day of maturation to ensure all fish would be 5 dpf at time of behavioral/anatomical testing. […]

zebrafish [1] = test: Rheotaxis behavior with next generation video imaging and semi-automated image analysis; type: in vivo, Danio rerio
Source text: Sulforaphane, a naturally occurring molecule within the isothiocyanate group of organosulfur compounds, is present within cruciferous vegetables such as broccoli. Low doses of SF induce production of antioxidant enzymes such as glutathione transferases, UDP-glucuronyltransferase, NAD(P)H:quinone oxidoreductase I and heme oxygenase-1 (HO-1) via NRF2 mediated activation of ARE promoters upstream from their genes—thereby allowing a diverse array of electrophilic and oxidative toxicants to be eliminated in a coordinated manner. Four-and-half dpf larvae were incubated in sulforaphane at a concentration of 10 μM for 12 hours and subsequently incubated for 4 hours in 1000 μM cisplatin (SF10/Cis 1000). An SF-alone (SF10/Cis 0) group and DMSO vehicle controls (DMSO/Cis 1000; DMSO/Cis 0) were also tested. To assess the otoprotective effects of SF on hair cell anatomy, aggregate neuromast damages were determined for each treatment group.

zebrafish [2] = test: Behavioral assay: rheotaxis in swimming test apparatus; type: in vivo, Danio rerio
Source text: The custom-built behavioral apparatus consists of 6 experimental lanes with laminar flow velocity controlled at 0.15 cm/sec, allowing the simultaneous testing of up to 6 differing experimental conditions. Each lane measures 10.2 cm in height×9.9 cm in width×25.4 cm in length. Lanes are partitioned with metal mesh dividers to contain fish in one central area, measuring 5.0 cm length×9.9 cm width, allowing for image capture (FIG. 3). E2 medium flows from a header tank through the experimental lanes to a media reserve tank and is then recycled via pump back to the header tank. The pump is used to overdrive a header standpipe, resulting in constant pressure that is split evenly between the lanes, controlling the flow. A heater located in the reserve media tank maintains temperature at 28±0.5° C. Total system volume capacity (experimental apparatus+header and reserve tanks) is approximately 210 L, while operating volume is 152 L. The flow is calibrated as follows: lane width (9.9 cm)×total number of lanes (6)×operational water height (5.8 cm)×desired flow (0.15 cm/sec)=flow rate of 51.7 cubic centimeters/seconds. Water traveling from experimental lanes to the reserve media tank is received in a 1000 mL beaker and the rate of water flow is adjusted until it takes 19.3 seconds to fill the beaker to 1000 mL. Flow speed is calibrated before every experiment. With the system calibrated, flow may then be turned on or off via a separate valve, without any further adjustments.
The experimental system is housed in a cabinet creating a condition free of ambient light, thus negating any influence of visual input on zebrafish swimming behavior. Infrared light provides lighting from which images were acquired. Video capture is accomplished with under-mounted Samsung SCB-200 high-resolution video cameras (FIG. 3). In conducting the assay, five-day post fertilization (5 dpf) zebrafish are treated with several different experimental conditions (see below for detailed methods), rinsed three times in embryo medium, transferred to the experimental lanes, and the cabinet is then closed for 30 minutes to allow for dark adaptation. Image acquisition begins with 2 minutes of filming under no-flow conditions, next the water flow is turned on and the fish are allowed 1 minute to acclimate to the flow and then 2 minutes of flow behavior is recorded (FIG. 4).
Rheotaxis was defined as fish oriented headfirst, with an axial alignment within 30 degrees on either side of the directional flow vector and attempting to swim into the current. […] From the still images, the angle of every fish was measured using ImageJ and placed into an Excel spreadsheet for data processing (FIG. 6). […] Therefore, there were no negative values or angles measured between 181-360 degrees. […]

[3] = dexamethasone 5 μM 12 hours alone, no cisplatin
[4] = dexamethasone 5 μM pre-exposure 12 hours, then cisplatin 1000 μM 4 hours

C[S+]([O-])CCCCN=C=S (centres unmarked) [sulforaphane]
hair cell damage caused by sulforaphane alone (in words) (lateral line hair cells; SF10/Cis 0: 10 μM, 12 hours): caused no hair cell damage
rescue of hair cell architecture against cisplatin (in words) (lateral line hair cells; SF10/Cis 1000: 10 μM 12 hours, then 1000 μM cisplatin 4 hours): partial rescue of hair cell architecture
effect of pre-exposure on rheotaxis after cisplatin (in words) (zebrafish [1]; SF10/Cis 1000): dramatically improved the ability of fish to perform rheotaxis

C[C@@H]1C[C@H]2[C@@H]3CCC4=CC(=O)C=C[C@]4(C)[C@@]3(F)[C@@H](O)C[C@]2(C)[C@@]1(O)C(=O)CO [Dex, dexamethasone]
hair cell damage caused by dexamethasone alone (in words) (lateral line hair cells; Dex 5/Cis 0): no hair cell damage; also recorded: no statistically significant difference between Cis 0 and Dex 5/Cis 0
Anatomical Assay Damage Score (Mean ± S.D.) (lateral line hair cells; [3]): 2.40 ± 0.64
Anatomical Assay Damage Score (Mean ± S.D.) (lateral line hair cells; [4]): 5.20 ± 1.53
damage by dexamethasone-alone treatment, rheotaxis (in words) (zebrafish [2]; Dex 5/Cis 0): No damage was induced
Behavioral Assay Rheotaxia Index (%) (Mean ± S.D.) (zebrafish [2]; [3]): 35.6 ± 12.5%
Behavioral Assay Rheotaxia Index (%) (Mean ± S.D.) (zebrafish [2]; [4]): 25.5 ± 5.2%

N.N.[Cl][Pt][Cl] [Cis, cisplatin]
rheotaxis performance versus cisplatin dosage (in words) (zebrafish [2]; in vivo): clear linear correlation was found between increasing cisplatin dosage and decreased rheotaxis performance
rheotaxis index (zebrafish [1]; cisplatin 1000 μM, new image analysis techniques, controls >85%): 45%

Source: patent publication US20170281799A1, “SYSTEMS AND METHODS FOR SCREENING OTOTOXIC, OTOPROTECTIVE, AND OTOREGENERATIVE COMPOUNDS USING AQUATIC MODELS” (ARIZONA BOARD OF REGENTS ON BEHALF OF THE UNIVERSITY OF …, priority 2014, published 2017)
